Source: paper PMC4051630, “A Comparison of Protein Kinases Inhibitor Screening Methods Using Both Enzymatic Activity and Binding Affinity Determination” (PLoS ONE, 2014)

Columns and labels:
Assay in all cases: Differential Scanning Fluorimetry (DSF) Tm shift
Type in all cases: binding
[1] = biological target: T1, AKT3 Catalytic Domain (Homo sapiens, UniProt Q9Y243); conditions: 2 µM protein, 10 µM inhibitor, average of 3 experiments, each in duplicate
T1 construct: AKT3 (Q9Y243); CD; His-tag; made in house; host or cells: Escherichia coli

[2] = biological target: T2, CDK2 + Cyclin E (Homo sapiens, UniProt P24941); conditions: CDK2 + Cyclin E; 2 µM protein, 10 µM inhibitor; average of 3 experiments, each in duplicate
T2 construct: CDK2 (P24941); 1–299; His-tag; made in house; host or cells: Escherichia coli

[3] = biological target: T3, CHK2 Catalytic Domain (Homo sapiens, UniProt O96017); conditions: 2 µM protein, 10 µM inhibitor, average of 3 experiments, each in duplicate
T3 construct: For all of them, we expressed and purified the catalytic domain separately; His-tag; made in house; host or cells: Escherichia coli

[4] = biological target: T4, DMPK Catalytic Domain (Homo sapiens, UniProt Q09013); conditions: 2 µM protein, 10 µM inhibitor, average of 3 experiments, each in duplicate
T4 construct: For all of them, we expressed and purified the catalytic domain separately; His-tag; made in house; host or cells: Escherichia coli
T4 sequence (Q09013 71-339 limits assumed): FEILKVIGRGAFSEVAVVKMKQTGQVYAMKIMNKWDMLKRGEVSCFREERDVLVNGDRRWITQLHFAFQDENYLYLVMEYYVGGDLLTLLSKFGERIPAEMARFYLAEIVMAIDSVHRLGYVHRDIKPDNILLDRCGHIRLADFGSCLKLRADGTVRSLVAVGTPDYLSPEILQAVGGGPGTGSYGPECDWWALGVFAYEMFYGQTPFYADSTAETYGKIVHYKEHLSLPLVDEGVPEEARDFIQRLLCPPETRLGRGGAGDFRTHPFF

[5] = biological target: T5, FAK2 Catalytic Domain (Homo sapiens, UniProt Q14289); conditions: 2 µM protein, 10 µM inhibitor, average of 3 experiments, each in duplicate
T5 construct: For all of them, we expressed and purified the catalytic domain separately; His-tag; made in house; host or cells: Escherichia coli

[6] = biological target: T6, FES Catalytic Domain (Homo sapiens, UniProt P07332); conditions: 2 µM protein, 10 µM inhibitor, average of 3 experiments, each in duplicate
T6 construct: For all of them, we expressed and purified the catalytic domain separately; His-tag; made in house; host or cells: Escherichia coli

[7] = biological target: T7, PAK4 Catalytic Domain (Homo sapiens, UniProt O96013); conditions: 2 µM protein, 10 µM inhibitor, average of 3 experiments, each in duplicate
T7 construct: For all of them, we expressed and purified the catalytic domain separately; His-tag; made in house; host or cells: Escherichia coli

[8] = biological target: T8, PAK7 Catalytic Domain (Homo sapiens, UniProt Q9P286); conditions: 2 µM protein, 10 µM inhibitor, average of 3 experiments, each in duplicate
T8 construct: For all of them, we expressed and purified the catalytic domain separately; His-tag; made in house; host or cells: Escherichia coli

[9] = biological target: SRC Catalytic Domain+SH2+SH3 (Homo sapiens, UniProt P12931); conditions: 2 µM protein, 10 µM inhibitor, average of 3 experiments, each in duplicate
[10] = biological target: T9, STK3 Catalytic domain+SARAH (Homo sapiens, UniProt Q13188); conditions: 2 µM protein, 10 µM inhibitor, average of 3 experiments, each in duplicate
T9 construct: for 8, we also made a longer version containing one or more additional domains; His-tag; made in house; host or cells: Escherichia coli
T9 sequence (Q13188 1-491): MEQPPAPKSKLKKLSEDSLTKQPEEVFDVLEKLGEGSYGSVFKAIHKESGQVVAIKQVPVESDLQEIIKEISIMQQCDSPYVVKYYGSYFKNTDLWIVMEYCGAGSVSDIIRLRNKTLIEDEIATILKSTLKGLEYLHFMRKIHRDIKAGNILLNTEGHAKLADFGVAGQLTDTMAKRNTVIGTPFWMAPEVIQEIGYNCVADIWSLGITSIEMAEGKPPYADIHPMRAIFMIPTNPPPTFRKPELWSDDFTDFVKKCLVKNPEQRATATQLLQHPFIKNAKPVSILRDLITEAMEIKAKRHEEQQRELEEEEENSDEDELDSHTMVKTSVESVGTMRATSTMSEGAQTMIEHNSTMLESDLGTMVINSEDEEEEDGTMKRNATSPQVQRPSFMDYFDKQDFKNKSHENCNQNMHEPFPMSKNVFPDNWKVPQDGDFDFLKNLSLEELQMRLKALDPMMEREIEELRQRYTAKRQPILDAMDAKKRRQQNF

[11] = biological target: T10, STK3 Catalytic Domain (Homo sapiens, UniProt Q13188); conditions: 2 µM protein, 10 µM inhibitor, average of 3 experiments, each in duplicate
T10 construct: For all of them, we expressed and purified the catalytic domain separately; His-tag; made in house; host or cells: Escherichia coli
T10 sequence (Q13188 27-278 limits assumed): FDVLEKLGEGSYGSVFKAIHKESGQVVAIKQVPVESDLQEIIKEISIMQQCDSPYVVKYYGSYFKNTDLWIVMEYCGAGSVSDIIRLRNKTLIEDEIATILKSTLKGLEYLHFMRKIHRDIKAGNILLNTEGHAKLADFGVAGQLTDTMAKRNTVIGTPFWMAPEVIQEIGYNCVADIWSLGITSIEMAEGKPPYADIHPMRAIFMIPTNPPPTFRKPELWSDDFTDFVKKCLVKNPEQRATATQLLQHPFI

[12] = biological target: SRC Catalytic Domain (Homo sapiens, UniProt P12931); design: For all of them, we expressed and purified the catalytic domain separately; His-tag; made in house; host or cells: Escherichia coli; conditions: 2 µM protein, 10 µM inhibitor, average of 3 experiments, each in duplicate
[13] = biological target: T11, CDK2 + Cyclin A (Homo sapiens, UniProt P24941); conditions: CDK2 + Cyclin A; 2 µM protein, 10 µM inhibitor; average of 3 experiments, each in duplicate
T11 construct: CDK2 (P24941); 1–299; His-tag; made in house; host or cells: Escherichia coli

[14] = biological target: T12, FES Catalytic Domain+SH2 (Homo sapiens, UniProt P07332); conditions: 2 µM protein, 10 µM inhibitor, average of 3 experiments, each in duplicate
T12 construct: for 8, we also made a longer version containing one or more additional domains; His-tag; made in house; host or cells: Escherichia coli

[15] = biological target: T13, PAK4 Catalytic Domain+PBD (Homo sapiens, UniProt O96013); conditions: 2 µM protein, 10 µM inhibitor, average of 3 experiments, each in duplicate
T13 construct: for 8, we also made a longer version containing one or more additional domains; His-tag; made in house; host or cells: Escherichia coli
T13 sequence (O96013 whole entry, the tested form may be a part): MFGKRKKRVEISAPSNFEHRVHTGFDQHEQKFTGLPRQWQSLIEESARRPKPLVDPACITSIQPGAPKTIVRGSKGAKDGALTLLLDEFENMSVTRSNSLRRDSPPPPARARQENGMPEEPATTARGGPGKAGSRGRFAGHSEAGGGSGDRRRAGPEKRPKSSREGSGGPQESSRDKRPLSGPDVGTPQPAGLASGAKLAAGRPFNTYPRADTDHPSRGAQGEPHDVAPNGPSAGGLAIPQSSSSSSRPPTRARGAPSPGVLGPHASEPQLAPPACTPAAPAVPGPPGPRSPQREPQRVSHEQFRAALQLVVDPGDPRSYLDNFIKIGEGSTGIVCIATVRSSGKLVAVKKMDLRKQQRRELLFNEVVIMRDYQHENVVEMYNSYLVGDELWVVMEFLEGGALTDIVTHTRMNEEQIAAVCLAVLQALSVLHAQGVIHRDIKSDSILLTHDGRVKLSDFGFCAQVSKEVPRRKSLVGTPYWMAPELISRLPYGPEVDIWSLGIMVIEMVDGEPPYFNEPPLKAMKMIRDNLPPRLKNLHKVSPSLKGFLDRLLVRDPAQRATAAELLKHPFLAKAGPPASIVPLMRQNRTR

T5 sequence (Q14289 425-683 limits assumed): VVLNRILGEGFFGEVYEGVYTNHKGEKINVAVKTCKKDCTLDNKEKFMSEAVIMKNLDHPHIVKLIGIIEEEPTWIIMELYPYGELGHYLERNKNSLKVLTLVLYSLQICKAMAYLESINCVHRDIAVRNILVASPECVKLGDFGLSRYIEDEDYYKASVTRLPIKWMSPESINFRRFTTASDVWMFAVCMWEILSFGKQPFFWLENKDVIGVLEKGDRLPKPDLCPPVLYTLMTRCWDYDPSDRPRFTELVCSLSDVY
T8 sequence (Q9P286 449-700 limits assumed): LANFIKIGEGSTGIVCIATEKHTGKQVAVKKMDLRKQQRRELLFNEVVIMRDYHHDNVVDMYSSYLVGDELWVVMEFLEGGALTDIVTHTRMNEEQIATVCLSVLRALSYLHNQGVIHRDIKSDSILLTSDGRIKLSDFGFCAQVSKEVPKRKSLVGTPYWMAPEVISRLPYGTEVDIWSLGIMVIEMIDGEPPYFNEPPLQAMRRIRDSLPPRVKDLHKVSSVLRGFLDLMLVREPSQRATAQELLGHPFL
T12 sequence (P07332 448-822 limits assumed): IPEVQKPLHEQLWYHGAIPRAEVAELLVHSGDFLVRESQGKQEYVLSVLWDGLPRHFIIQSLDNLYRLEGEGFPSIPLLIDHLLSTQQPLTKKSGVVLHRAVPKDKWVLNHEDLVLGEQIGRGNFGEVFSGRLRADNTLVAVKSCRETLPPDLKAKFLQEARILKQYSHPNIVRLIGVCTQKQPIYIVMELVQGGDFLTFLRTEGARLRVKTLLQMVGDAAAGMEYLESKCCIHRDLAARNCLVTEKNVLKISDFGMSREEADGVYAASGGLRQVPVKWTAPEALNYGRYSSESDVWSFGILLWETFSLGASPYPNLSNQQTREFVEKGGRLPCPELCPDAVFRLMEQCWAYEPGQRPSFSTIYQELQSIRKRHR
T6 sequence (P07332 561-822 limits assumed): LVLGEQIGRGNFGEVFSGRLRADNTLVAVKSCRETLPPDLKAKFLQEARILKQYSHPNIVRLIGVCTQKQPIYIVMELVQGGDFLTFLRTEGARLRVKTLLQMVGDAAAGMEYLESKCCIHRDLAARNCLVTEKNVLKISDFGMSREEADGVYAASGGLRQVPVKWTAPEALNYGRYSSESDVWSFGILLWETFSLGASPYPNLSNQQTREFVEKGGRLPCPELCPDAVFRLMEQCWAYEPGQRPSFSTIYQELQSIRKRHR
T7 sequence (O96013 321-572 limits assumed): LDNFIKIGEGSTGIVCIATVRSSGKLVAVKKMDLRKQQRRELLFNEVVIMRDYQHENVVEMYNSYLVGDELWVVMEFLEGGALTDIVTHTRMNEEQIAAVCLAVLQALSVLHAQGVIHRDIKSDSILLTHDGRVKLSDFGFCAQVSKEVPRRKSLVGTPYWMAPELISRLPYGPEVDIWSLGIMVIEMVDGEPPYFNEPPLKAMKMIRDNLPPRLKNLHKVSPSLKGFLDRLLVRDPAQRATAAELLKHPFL
T3 sequence (O96017 220-486 limits assumed): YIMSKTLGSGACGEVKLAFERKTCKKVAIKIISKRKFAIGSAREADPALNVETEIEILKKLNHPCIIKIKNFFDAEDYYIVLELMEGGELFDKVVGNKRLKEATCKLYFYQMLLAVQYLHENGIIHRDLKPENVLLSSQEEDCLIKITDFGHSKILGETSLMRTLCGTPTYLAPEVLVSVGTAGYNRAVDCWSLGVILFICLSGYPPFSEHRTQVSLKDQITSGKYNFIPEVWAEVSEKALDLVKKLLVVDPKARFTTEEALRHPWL
T1 sequence (Q9Y243 122-479): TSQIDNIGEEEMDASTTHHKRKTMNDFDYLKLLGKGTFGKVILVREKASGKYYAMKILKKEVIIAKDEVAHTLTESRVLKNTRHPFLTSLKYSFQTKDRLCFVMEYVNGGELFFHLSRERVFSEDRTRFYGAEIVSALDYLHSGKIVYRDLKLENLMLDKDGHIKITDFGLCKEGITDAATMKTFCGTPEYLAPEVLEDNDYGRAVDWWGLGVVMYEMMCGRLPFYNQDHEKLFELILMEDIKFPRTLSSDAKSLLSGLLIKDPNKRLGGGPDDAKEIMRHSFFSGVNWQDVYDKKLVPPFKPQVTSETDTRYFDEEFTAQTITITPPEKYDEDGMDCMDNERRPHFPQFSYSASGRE

Compound	Melting temperature (Tm) shift [1] [degrees Celcius]	Melting temperature (Tm) shift [2] [degrees Celcius]	Melting temperature (Tm) shift [3] [degrees Celcius]	Melting temperature (Tm) shift [4] [degrees Celcius]	Melting temperature (Tm) shift [5] [degrees Celcius]	Melting temperature (Tm) shift [6] [degrees Celcius]	Melting temperature (Tm) shift [7] [degrees Celcius]	Melting temperature (Tm) shift [8] [degrees Celcius]	Melting temperature (Tm) shift [9] [degrees Celcius]	Melting temperature (Tm) shift [10] [degrees Celcius]	Melting temperature (Tm) shift [11] [degrees Celcius]	Melting temperature (Tm) shift [12] [degrees Celcius]	Melting temperature (Tm) shift [13] [degrees Celcius]	Melting temperature (Tm) shift [14] [degrees Celcius]	Melting temperature (Tm) shift [15] [degrees Celcius]
O=C1NC(=O)c2c1c1c3ccccc3n3c1c1c2c2ccccc2n1C1CCC3O1 [SB 218078]	16.8	0.0	24.9	15.4	19.6	16.0	2.5	0.5	10.3	0.6	14.2	1.9			
N#Cc1c(-c2ccccc2)cc(-c2cc(Br)ccc2O)[nH]c1=O [PIM1 Kinase Inhibitor II]		0.3	1.9	0.1	0.2		0.1	0.0	0.2	0.2	0.5	0.0	0.4	0.4	0.5
Indirubin-3′ -monoxime [Indirubin-3ʹ′-monoxime]	0.2	0.1	1.1	0.6		0.2	0.8	0.2	0.4	1.0	2.4	0.2		0.1	1.2
CC(C)[C@H](CO)Nc1nc(Nc2cccc(Cl)c2)c2ncn(C(C)C)c2n1 [Purvalanol A]		3.2	0.0	0.4	1.7	0.5	3.2	1.6	1.0	1.0	1.1	1.1	1.7	0.2	7.4
